Data from the NIST ThermoML archive (doi:10.1021/je9008574).
Several values for one entry are separate records, joined by “and”; a condition that tells them apart may be missing. Equal entries are not always repeated. Numbers after ± are expanded uncertainties.

Conditions: Crystal

[Cl-].[Cl-].[Ga+2] [gallium(II) chloride]
vapor or sublimation pressure (372 K): 4.571e-05 ± 9.2e-06 kPa
vapor or sublimation pressure (374 K): 3.09e-05 ± 6.2e-06 kPa
vapor or sublimation pressure (375 K): 6.166e-05 ± 1.2e-05 kPa and 4.571e-05 ± 9.2e-06 kPa and 3.388e-05 ± 6.8e-06 kPa
vapor or sublimation pressure (378 K): 4.571e-05 ± 9.2e-06 kPa
vapor or sublimation pressure (378.5 K): 6.166e-05 ± 1.2e-05 kPa
vapor or sublimation pressure (379 K): 9.12e-05 ± 1.8e-05 kPa
vapor or sublimation pressure (381 K): 7.762e-05 ± 1.6e-05 kPa
vapor or sublimation pressure (381.5 K): 6.761e-05 ± 1.4e-05 kPa
vapor or sublimation pressure (382.5 K): 9.12e-05 ± 1.8e-05 kPa
vapor or sublimation pressure (383.5 K): 0.0001202 ± 2.4e-05 kPa
vapor or sublimation pressure (384 K): 0.0001202 ± 2.4e-05 kPa and 0.000123 ± 2.5e-05 kPa
vapor or sublimation pressure (385 K): 0.0001072 ± 2.2e-05 kPa
vapor or sublimation pressure (386 K): 0.0001514 ± 3e-05 kPa and 0.0001778 ± 3.6e-05 kPa
vapor or sublimation pressure (386.5 K): 0.000123 ± 2.5e-05 kPa and 0.0001023 ± 2.1e-05 kPa
vapor or sublimation pressure (387 K): 0.0001862 ± 3.7e-05 kPa
vapor or sublimation pressure (387.5 K): 0.000123 ± 2.5e-05 kPa
vapor or sublimation pressure (388.5 K): 0.0001778 ± 3.6e-05 kPa
vapor or sublimation pressure (389 K): 0.0002089 ± 4.2e-05 kPa
vapor or sublimation pressure (390 K): 0.0002399 ± 4.8e-05 kPa
vapor or sublimation pressure (390.5 K): 0.0001549 ± 3.1e-05 kPa
vapor or sublimation pressure (391 K): 0.0001698 ± 3.4e-05 kPa and 0.0001862 ± 3.7e-05 kPa
vapor or sublimation pressure (391.5 K): 0.0002399 ± 4.8e-05 kPa and 0.0002754 ± 5.5e-05 kPa
vapor or sublimation pressure (392 K): 0.000302 ± 6e-05 kPa
vapor or sublimation pressure (393 K): 0.0001862 ± 3.7e-05 kPa
vapor or sublimation pressure (393.5 K): 0.000302 ± 6.1e-05 kPa
vapor or sublimation pressure (394 K): 0.0002455 ± 4.9e-05 kPa and 0.0003311 ± 6.6e-05 kPa and 0.0002138 ± 4.3e-05 kPa
vapor or sublimation pressure (395 K): 0.0002754 ± 5.5e-05 kPa
vapor or sublimation pressure (396 K): 0.0002951 ± 5.9e-05 kPa
vapor or sublimation pressure (396.5 K): 0.000309 ± 6.2e-05 kPa
vapor or sublimation pressure (397.5 K): 0.000389 ± 7.8e-05 kPa and 0.0005248 ± 0.00011 kPa
vapor or sublimation pressure (398 K): 0.0002951 ± 5.9e-05 kPa and 0.0004169 ± 8.3e-05 kPa and 0.0004467 ± 8.9e-05 kPa
vapor or sublimation pressure (398.5 K): 0.0004786 ± 9.6e-05 kPa
vapor or sublimation pressure (399 K): 0.0003388 ± 6.8e-05 kPa and 0.0004786 ± 9.6e-05 kPa
vapor or sublimation pressure (399.5 K): 0.0003802 ± 7.6e-05 kPa and 0.0003981 ± 8e-05 kPa and 0.000302 ± 6.1e-05 kPa
vapor or sublimation pressure (401 K): 0.0005129 ± 0.0001 kPa
vapor or sublimation pressure (402 K): 0.0007244 ± 0.00014 kPa and 0.0007413 ± 0.00015 kPa
vapor or sublimation pressure (402.5 K): 0.0006607 ± 0.00013 kPa and 0.000389 ± 7.8e-05 kPa
vapor or sublimation pressure (403 K): 0.0006607 ± 0.00013 kPa and 0.0004786 ± 9.6e-05 kPa
vapor or sublimation pressure (403.5 K): 0.0005495 ± 0.00011 kPa
vapor or sublimation pressure (404 K): 0.0007762 ± 0.00016 kPa
vapor or sublimation pressure (405 K): 0.0006761 ± 0.00014 kPa and 0.0005888 ± 0.00012 kPa
vapor or sublimation pressure (405.5 K): 0.0007762 ± 0.00016 kPa
vapor or sublimation pressure (406 K): 0.000955 ± 0.00019 kPa and 0.0006761 ± 0.00014 kPa
vapor or sublimation pressure (406.5 K): 0.0008913 ± 0.00018 kPa
vapor or sublimation pressure (407.5 K): 0.000955 ± 0.00019 kPa and 0.0007762 ± 0.00016 kPa
vapor or sublimation pressure (408 K): 0.0007079 ± 0.00014 kPa
vapor or sublimation pressure (409 K): 0.0007762 ± 0.00016 kPa and 0.001023 ± 0.0002 kPa and 0.0007079 ± 0.00014 kPa
vapor or sublimation pressure (410 K): 0.001202 ± 0.00024 kPa
vapor or sublimation pressure (410.5 K): 0.000871 ± 0.00017 kPa and 0.001259 ± 0.00025 kPa and 0.001072 ± 0.00021 kPa
vapor or sublimation pressure (411 K): 0.001023 ± 0.0002 kPa
vapor or sublimation pressure (411.5 K): 0.001318 ± 0.00026 kPa and 0.001549 ± 0.00031 kPa
vapor or sublimation pressure (413 K): 0.0009772 ± 0.0002 kPa and 0.001445 ± 0.00029 kPa
vapor or sublimation pressure (413.5 K): 0.001514 ± 0.0003 kPa and 0.001445 ± 0.00029 kPa
vapor or sublimation pressure (414 K): 0.001202 ± 0.00024 kPa and 0.001259 ± 0.00025 kPa and 0.001072 ± 0.00021 kPa
vapor or sublimation pressure (414.5 K): 0.001288 ± 0.00026 kPa
vapor or sublimation pressure (415 K): 0.002138 ± 0.00043 kPa
vapor or sublimation pressure (415.5 K): 0.001259 ± 0.00025 kPa and 0.001905 ± 0.00038 kPa and 0.001862 ± 0.00037 kPa
vapor or sublimation pressure (416 K): 0.001413 ± 0.00028 kPa and 0.001778 ± 0.00036 kPa
vapor or sublimation pressure (416.5 K): 0.001905 ± 0.00038 kPa and 0.001549 ± 0.00031 kPa and 0.001288 ± 0.00026 kPa
vapor or sublimation pressure (417 K): 0.001585 ± 0.00032 kPa and 0.001549 ± 0.00031 kPa
vapor or sublimation pressure (417.5 K): 0.002089 ± 0.00042 kPa and 0.001698 ± 0.00034 kPa
vapor or sublimation pressure (418 K): 0.002138 ± 0.00043 kPa
vapor or sublimation pressure (418.5 K): 0.002399 ± 0.00048 kPa
vapor or sublimation pressure (419 K): 0.002399 ± 0.00048 kPa and 0.002138 ± 0.00043 kPa
vapor or sublimation pressure (420 K): 0.00195 ± 0.00039 kPa and 0.00263 ± 0.00053 kPa
vapor or sublimation pressure (421 K): 0.003388 ± 0.00068 kPa and 0.002138 ± 0.00043 kPa
vapor or sublimation pressure (421.5 K): 0.002138 ± 0.00043 kPa and 0.00302 ± 0.0006 kPa and 0.002951 ± 0.00059 kPa
vapor or sublimation pressure (422 K): 0.002138 ± 0.00043 kPa and 0.002344 ± 0.00047 kPa
vapor or sublimation pressure (422.5 K): 0.003236 ± 0.00065 kPa and 0.00302 ± 0.0006 kPa
vapor or sublimation pressure (423.5 K): 0.002291 ± 0.00046 kPa
vapor or sublimation pressure (424 K): 0.003802 ± 0.00076 kPa
vapor or sublimation pressure (424.5 K): 0.002512 ± 0.0005 kPa and 0.002818 ± 0.00056 kPa
vapor or sublimation pressure (425.5 K): 0.004266 ± 0.00085 kPa
vapor or sublimation pressure (426 K): 0.003981 ± 0.0008 kPa [middle of 5 runs]
vapor or sublimation pressure (427 K): 0.002754 ± 0.00055 kPa
vapor or sublimation pressure (427.5 K): 0.004571 ± 0.00091 kPa and 0.003467 ± 0.00069 kPa
vapor or sublimation pressure (428 K): 0.003236 ± 0.00065 kPa
vapor or sublimation pressure (428.5 K): 0.003388 ± 0.00068 kPa and 0.004677 ± 0.00094 kPa
vapor or sublimation pressure (429 K): 0.005248 ± 0.001 kPa and 0.005129 ± 0.001 kPa
vapor or sublimation pressure (430 K): 0.004365 ± 0.00087 kPa and 0.005248 ± 0.001 kPa and 0.003311 ± 0.00066 kPa
vapor or sublimation pressure (430.5 K): 0.006026 ± 0.0012 kPa
vapor or sublimation pressure (431 K): 0.003715 ± 0.00074 kPa
vapor or sublimation pressure (432 K): 0.006457 ± 0.0013 kPa and 0.006761 ± 0.0014 kPa
vapor or sublimation pressure (432.5 K): 0.004365 ± 0.00087 kPa
vapor or sublimation pressure (433 K): 0.007079 ± 0.0014 kPa
vapor or sublimation pressure (434 K): 0.006026 ± 0.0012 kPa and 0.005495 ± 0.0011 kPa
vapor or sublimation pressure (435.5 K): 0.007943 ± 0.0016 kPa
vapor or sublimation pressure (436 K): 0.005623 ± 0.0011 kPa and 0.008318 ± 0.0017 kPa and 0.005495 ± 0.0011 kPa
vapor or sublimation pressure (437 K): 0.008913 ± 0.0018 kPa
vapor or sublimation pressure (438 K): 0.007586 ± 0.0015 kPa
vapor or sublimation pressure (439 K): 0.01 ± 0.002 kPa
vapor or sublimation pressure (440 K): 0.01096 ± 0.0022 kPa and 0.01072 ± 0.0021 kPa
vapor or sublimation pressure (441 K): 0.00871 ± 0.0017 kPa and 0.007762 ± 0.0016 kPa
